Data set [1] deals with Aβ42. Nature of the data set: Method 1: Aβ42 sandwich ELISA on media of SKNBE2 cells carrying APP 695 wild type (γ-secretase-modulating activity). In kind it is cell-based. As to conditions: SKNBE2 cells APP 695 wild type, 18 hours. On the procedure:
(§1) Screening was carried out using SKNBE2 cells carrying the APP 695—wild type, grown in Dulbecco's Modified Eagle's Medium/Nutrient mixture F-12 (DMEM/NUT-mix F-12) (HAM) provided by Gibco (cat no. 31330-38) containing 5% Serum/Fe supplemented with 1% non-essential amino acids. Cells were grown to near confluency.
(§2) The screening was performed using the assay as described in Citron et al (1997) Nature Medicine 3: 67. Briefly, cells were plated in a 96-well plate at about 10^5 cells/ml one day prior to addition of compounds. Compounds were added to the cells in Ultraculture (Lonza, BE12-725F) supplemented with 1% glutamine (Invitrogen, 25030-024) for 18 hours. The media were assayed by two sandwich ELISAs, for Aβ42 and Aβtotal. Toxicity of the compounds was assayed by WST-1 cell proliferation reagent (Roche, 1 644 807) according to the manufacturer's protocol.
To quantify the amount of Aβ42 in the cell supernatant, commercially available Enzyme-Linked-Immunosorbent-Assay (ELISA) kits were used (Innotest® β-Amyloid(1-42), Innogenetics N.V., Ghent, Belgium). The Aβ42 ELISA was performed essentially according to the manufacturer's protocol. Briefly, the standards (dilutions of synthetic A131-42) were prepared in polypropylene Eppendorf with final concentrations of 8000 down to […] (½ dilution step). Samples, standards and blanks (100 μl) were added to the anti-Aβ42-coated plate supplied with the kit (the capture antibody selectively recognizes the C-terminal end of the antigen). The plate was allowed to incubate 3 h at 25° C. in order to allow formation of the antibody-amyloid complex. Following this incubation and subsequent wash steps a selective anti-A13-antibody conjugate (biotinylated 3D6) was added and incubated for a minimum of 1 hour in order to allow formation of the antibody-Amyloid-antibody-complex. After incubation and appropriate wash steps, a Streptavidine-Peroxidase-Conjugate was added, followed 30 minutes later by an addition of 3,3′,5,5′-tetramethylbenzidine (TMB)/peroxide mixture, resulting in the conversion of the substrate into a coloured product. This reaction was stopped by the addition of sulfuric acid (0.9 N) and the colour intensity was measured by means of photometry with an ELISA-reader with a 450 nm filter.
(§3) To obtain the values reported in Table 3a, the sigmoidal dose response curves were analysed by computerised curve-fitting, with percent of inhibition plotted against compound concentration. A 4-parameter equation (model 205) in XLfit was used to determine the IC50. The top and the bottom of the curve were fixed to 100 and 0, respectively, and the hill slope was fixed to 1. The IC50 represents the concentration of a compound that is required for inhibiting a biological effect by 50% (Here, it is the concentration where Aβ peptide level is reduced by 50%).

Data set [2] relates to Aβtotal. Nature of the data set: Method 1: Aβtotal sandwich ELISA on media of SKNBE2 cells carrying APP 695 wild type. The format is cell-based. The settings on record: SKNBE2 cells APP 695 wild type, 18 hours. The protocol: as §1, §2
To quantify the amount of Aβtotal in the cell supernatant, samples and standards were added to a 6E10-coated plate. The plate was allowed to incubate overnight at 4° C. in order to allow formation of the antibody-amyloid complex. Following this incubation and subsequent wash steps a selective anti-AB-antibody conjugate (biotinylated 4G8) was added and incubated for a minimum of 1 hour in order to allow formation of the antibody-Amyloid-antibody-complex. After incubation and appropriate wash steps, a Streptavidine-Peroxidase-Conjugate was added, followed 30 minutes later by an addition of Quanta Blu fluorogenic peroxidase substrate according to the manufacturer's instructions (Pierce Corp., Rockford, Il).
as §3

Data set [3] concerns Aβ42. Nature of the data set: Method 2: Aβ42 Alphalisa on supernatant of SKNBE2 cells carrying APP 695 wild type. As to conditions: SKNBE2 cells APP 695 wild type, overnight. In kind it is cell-based. The protocol: (§4) Screening was carried out using SKNBE2 cells carrying the APP 695—wild type, grown in Dulbecco's Modified Eagle's Medium/Nutrient mixture F-12 (DMEM/NUT-mix F-12) (HAM) provided by Invitrogen (cat no. 10371-029) containing 5% Serum/Fe supplemented with 1% non-essential amino acids, 1-glutamine 2 mM, Hepes 15 mM, penicillin 50 U/ml (units/ml) en streptomycin 50 μg/ml. Cells were grown to near confluency.
(§5) The screening was performed using a modification of the assay as described in Citron et al (1997) Nature Medicine 3: 67. Briefly, cells were plated in a 384-well plate at 10^4 cells/well in Ultraculture (Lonza, BE12-725F) supplemented with 1% glutamine (Invitrogen, 25030-024), 1% non-essential amino acid (NEAA), penicillin 50 U/ml en streptomycin 50 μg/ml in the presence of test compound at different test concentrations. The cell/compound mixture was incubated overnight at 37° C., 5% CO2, The next day the media were assayed by two sandwich immuno-assays, for Aβ42 and Aβtotal.
(§6) Aβtotal and Aβ42 concentrations were quantified in the cell supernatant using the Aphalisa technology (Perkin Elmer). Alphalisa is a sandwich assay using biotinylated antibody attached to streptavidin coated donorbeads and antibody conjugated to acceptor beads. In the presence of antigen, the beads come into close proximity. The excitation of the donor beads provokes the release of singlet oxygen molecules that trigger a cascade of energy transfer in the acceptor beads, resulting in light emission. To quantify the amount of Aβ42 in the cell supernatant, monoclonal antibody specific to the C-terminus of Aβ42 (JRF/cAβ42/26) was coupled to the receptor beads and biotinylated antibody specific to the N-terminus of AB (JRF/AβN/25) was used to react with the donor beads. To quantify the amount of Aβtotal in the cell supernatant, monoclonal antibody specific to the N-terminus of AB (JRF/AβN/25) was coupled to the receptor beads and biotinylated antibody specific to the mid region of Aβ (biotinylated 4G8) was used to react with the donor beads.
(§7) To obtain the values reported in Table 3b, the data were calculated as percentage of the maximum amount of amyloid Beta 42 measured in the absence of the test compound. The sigmoidal dose response curves were analyzed using non-linear regression analysis with percentage of the control plotted against the log concentration of the compound. A 4-parameter equation was used to determine the IC50.

The test system of data set [4] is Aβtotal. Nature of the data set: Method 2: Aβtotal Alphalisa on supernatant of SKNBE2 cells carrying APP 695 wild type. In kind it is cell-based. The settings on record: SKNBE2 cells APP 695 wild type, overnight. The protocol:
as §4, §5, §6, §7

Regarding `CCCCn1cc2cc(C#N)cc(Nc3ccc(-n4cnc(C)c4)c(OC)c3)c2n1` [Compound 11, 2-butyl-7-[[3-methoxy-4-(4-methyl-1H-imidazol-1-yl)phenyl]amino]-2H-indazole-5-carbonitrile .2HCl], the IC50 in the data set on Aβ42 [1] is 0.077 µM; with Aβtotal [2], greater than 3 µM; in the data set on Aβ42 [3], less than 3 µM; in the data set on Aβtotal [4], greater than 3 µM.
With `COc1cc(Nc2cccc3cn(CC4CC4)nc23)ccc1-n1cnc(C)c1` [Compound 13, 2-(cyclopropylmethyl)-N-[3-methoxy-4-(4-methyl-1H-imidazol-1-yl)phenyl]-2H-indazol-7-amine .2HCl], the IC50 is 0.283 µM in the data set with Aβ42 [1], greater than 3 µM in the data set with Aβtotal [2], 0.079 µM in the data set with Aβ42 [3] and greater than 10 µM with Aβtotal [4].
Regarding `COc1cc(Nc2cccc3c(C)n(-c4ccc(F)cc4F)nc23)ccc1-n1cnc(C)c1` [Compound 16, 2-(2,4-difluorophenyl)-N-[3-methoxy-4-(4-methyl-1H-imidazol-1-yl)phenyl]-3-methyl-2H-indazol-7-amine], the IC50 in the data set on Aβ42 [1] (Homo sapiens) was 0.19 µM; in the data set on Aβtotal [2] (Homo sapiens), greater than 3 µM; with Aβ42 [3] (Homo sapiens) it was 0.054 µM; with Aβtotal [4] (Homo sapiens), 8.51 µM.
Regarding `COc1cc(Nc2cccc3cn(CC(F)(F)F)nc23)ccc1-n1cnc(C)n1` [Compound 18, N-[3-methoxy-4-(3-methyl-1H-1,2,4-triazol-1-yl)phenyl]-2-(2,2,2-trifluoroethyl)-2H-indazol-7-amine], the IC50 in the data set on Aβ42 [1] (Homo sapiens) is 0.479 µM; in the data set on Aβtotal [2] (Homo sapiens) it was greater than 3 µM; with Aβ42 [3] (Homo sapiens), 0.331 µM; in the data set on Aβtotal [4] (Homo sapiens), greater than 10 µM.
Regarding `COc1cccc(-n2cc3cccc(Nc4ccc(-n5cnc(C)n5)c(OC)c4)c3n2)c1` [Compound 19, N-[3-methoxy-4-(3-methyl-1H-1,2,4-triazol-1-yl)phenyl]-2-(3-methoxyphenyl)-2H-indazol-7-amine], the IC50 in the data set on Aβ42 [1] (Homo sapiens) is 0.126 µM; in the data set on Aβtotal [2] (Homo sapiens) it was greater than 3 µM; in the data set with Aβ42 [3] (Homo sapiens), 0.123 µM; in the data set on Aβtotal [4] (Homo sapiens) it was 3.02 µM.
As to `CCOc1cc(C)c(-n2nc3c(Nc4ccc(-n5cnc(C)n5)c(OC)c4)cccc3c2C)cc1C(C)C` [Compound 20, 2-[4-ethoxy-2-methyl-5-(1-methylethyl)phenyl]-N-[3-methoxy-4-(3-methyl-1H-1,2,4-triazol-1-yl)phenyl]-3-methyl-2H-indazol-7-amine], the IC50 was 0.067 µM in the data set on Aβ42 [1] (Homo sapiens), greater than 3 µM in the data set on Aβtotal [2] (Homo sapiens), 0.059 µM with Aβ42 [3] (Homo sapiens) and 6.03 µM with Aβtotal [4] (Homo sapiens).
`COc1cc(Nc2nc(C)cc3cn(CC(F)(F)F)nc23)ccc1-n1cnc(C)n1` [Compound 21, N-[3-methoxy-4-(3-methyl-1H-1,2,4-triazol-1-yl)phenyl]-5-methyl-2-(2,2,2-trifluoroethyl)-2H-pyrazolo[3,4-c]pyridin-7-amine] displayed a melting point of 203.4 °C. The IC50 in the data set on Aβ42 [3] (Homo sapiens) is greater than 3 µM. Moreover, the IC50 in the data set on Aβtotal [4] (Homo sapiens) is greater than 3 µM.
In turn, `Cc1ncc(-c2ccc(Nc3cccc4cn(C)nc34)cc2)o1` [Compound 24, 2-methyl-N-[4-(2-methyl-5-oxazolyl)phenyl]-2H-indazol-7-amine] displayed a melting point of 168.7 °C. In the data set with Aβ42 [3] (Homo sapiens), this compound returned a half-inhibitory concentration (IC50) greater than 3 µM. This compound also yielded a concentration for half-maximal inhibition (IC50) with Aβtotal [4] (Homo sapiens) greater than 3 µM.
In the case of `Cc1ncc(-c2ccc(Nc3cccc4cn(CC5CC5)nc34)cc2)o1` [Compound 25, 2-(cyclopropylmethyl)-N-[4-(2-methyl-5-oxazolyl)phenyl]-2H-indazol-7-amine .2HCl], the IC50 was 1.74 µM with Aβ42 [1], greater than 150 µM with Aβtotal [2], 1.26 µM with Aβ42 [3] and 49 µM in the data set on Aβtotal [4].
The compound `Cc1ncc(-c2ccc(Nc3cccc4cn(C5CCOCC5)nc34)cc2)o1` [Compound 28, N-[4-(2-methyl-5-oxazolyl)phenyl]-2-(tetrahydro-2H-pyran-4-yl)-2H-indazol-7-amine] yielded a melting point of 224.8 °C. Besides, in the data set on Aβ42 [3] (Homo sapiens), the IC50 was greater than 3 µM.
Take `CCOc1cc(C)c(-n2nc3c(Nc4ccc(-c5cnc(C)o5)cc4)cccc3c2C)cc1C(C)C` [Compound 30, 2-[4-ethoxy-2-methyl-5-(1-methylethyl)phenyl]-3-methyl-N-[4-(2-methyl-5-oxazolyl)phenyl]-2H-indazol-7-amine]: the IC50 was 0.127 µM in the data set on Aβ42 [1] (Homo sapiens), greater than 3 µM in the data set on Aβtotal [2] (Homo sapiens), 0.129 µM in the data set on Aβ42 [3] (Homo sapiens) and greater than 10 µM in the data set on Aβtotal [4] (Homo sapiens).
Consider `Cc1ncc(-c2ccc(Nc3cccc4c(C)n(-c5ccc(F)cc5)nc34)cc2)o1` [Compound 31, 2-(4-fluorophenyl)-3-methyl-N-[4-(2-methyl-5-oxazolyl)phenyl]-2H-indazol-7-amine .1.5HCl], for which the IC50 was 0.126 µM with Aβ42 [1], greater than 3 µM with Aβtotal [2], 0.037 µM with Aβ42 [3] and greater than 10 µM in the data set with Aβtotal [4].
`Cc1ncc(-c2ccc(Nc3cccc4c(C)n(-c5ccc(F)cc5F)nc34)cc2)o1` [Compound 33, 2-(2,4-difluorophenyl)-3-methyl-N-[4-(2-methyl-5-oxazolyl)phenyl]-2H-indazol-7-amine] displayed a melting point of 139.9 °C. Besides, the IC50 with Aβ42 [3] (Homo sapiens) was 0.166 µM. Also, the IC50 with Aβtotal [4] (Homo sapiens) was greater than 10 µM.
`COc1cc(Nc2cccc3cn(CC4CC4)nc23)ccc1-c1ocnc1C` [Compound 37, 2-(cyclopropylmethyl)-N-[3-methoxy-4-(4-methyl-5-oxazolyl)phenyl]-2H-indazol-7-amine .2HCl]: the IC50 was 2.66 µM in the data set on Aβ42 [1], greater than 3 µM in the data set on Aβtotal [2], greater than 3 µM in the data set with Aβ42 [3] and greater than 3 µM in the data set with Aβtotal [4].
`COc1cccc(-n2nc3c(Nc4ccc(-c5ocnc5C)c(OC)c4)cccc3c2C)c1` [Compound 39, N-[3-methoxy-4-(4-methyl-5-oxazolyl)phenyl]-2-(3-methoxyphenyl)-3-methyl-2H-indazol-7-amine .1.9HCl]: the concentration for half-maximal inhibition (IC50) in the data set on Aβ42 [1] was 0.029 µM; in the data set on Aβtotal [2] it was greater than 3 µM; with Aβ42 [3], 0.03 µM; in the data set with Aβtotal [4], greater than 10 µM.
Turning to `Cc1ncoc1-c1ccc(Nc2cccc3c(C)n(-c4ccc(F)cc4)nc23)cn1` [Compound 46, 2-(4-fluorophenyl)-3-methyl-N-[6-(4-methyl-5-oxazolyl)-3-pyridinyl]-2H-indazol-7-amine], the IC50 was 0.199 µM with Aβ42 [1] (Homo sapiens), greater than 3 µM in the data set with Aβtotal [2] (Homo sapiens), 0.066 µM in the data set on Aβ42 [3] (Homo sapiens) and 4.27 µM in the data set with Aβtotal [4] (Homo sapiens).

These data come from US20120095036A1, “NOVEL SUBSTITUTED INDAZOLE AND AZA-INDAZOLE DERIVATIVES AS GAMMA SECRETASE MODULATORS” (priority 2009, published 2012).
